{
  "source": "paper PMC11971462",
  "about": "“Generation and validation of a novel multitarget small molecule in glioblastoma” (Cell Death & Disease, 2025)",
  "key": {"U87-MG cells [1]": {"tested_on": "U87-MG cells", "assay": "Subcutaneous U87-MG tumor growth, single treatment", "type": "in vivo, athymic nude-Foxn1nu mice", "details": "day 34, 100 µM intratumoral, 5 days on 2 days off; controls 800 mm^3", "procedure": "(§1) For tumor growth experiments, 5 × 10^5 U87-MG cells were subcutaneously injected into two bottom flanks of athymic nude-Foxn1^nu mice, and once tumors reached a size of 25-50 mm^3, mice were sorted into groups taking into account gender and tumor size. Afterwards, mice were intratumorally treated with vehicle, SAHA 100 µM or DDI199 100 µM following a schedule of 5 days on and 2 days off. In combined treatment, mice were treated intraperitoneally with 0.5 mg/Kg of TMZ for 5 days and intratumorally following a schedule of 5 days on and 2 days off with vehicle, SAHA 100 µM or DDI199 100 µM. After 4 weeks of treatment, some mice were kept for washout experiment, while the rest were sacrificed and tumors were extracted for immunohistochemistry and to disaggregate for reinjection and oncosphere formation studies. For reinjection assays, 1.5 × 10^5 cells were subcutaneously injected and tumor size was periodically measured. Once tumors reached end-point criteria, they were extracted for immunohistochemical analysis. An external caliper was used for tumor size measurement and the tumor volume was estimated using the formula V = L · W^2 · 0.5 (where L is tumor length and W is the tumor width)."}, "U87-MG cells [2]": {"tested_on": "U87-MG cells", "assay": "Washout experiment after treatment", "type": "in vivo, athymic nude-Foxn1nu mice", "details": "after 4 weeks treatment; controls 10 days", "procedure": "as §1"}, "U87-MG cells [3]": {"tested_on": "U87-MG cells", "assay": "Subcutaneous U87-MG tumor growth, combined treatment with TMZ", "type": "in vivo, athymic nude-Foxn1nu mice", "details": "end-point, controls 600 mm^3", "procedure": "as §1"}, "U87-MG cells [4]": {"tested_on": "U87-MG cells", "assay": "Cell viability with TMZ and DDI199 alone or combined", "type": "cell-based, human", "details": "72 h, 250 µM TMZ or 0.5 µM DDI199 alone", "procedure": "MTT assay was used to study cell viability. For that, cells were seeded at a density of 1.5 × 10^3 cells/well in 96-well plates, incubated overnight and then treated with increasing concentrations of DDI199. After 72 h of treatment, MTT absorbance was measured at 570 nm. GraphPad Prism software was used to analyze results and calculate IC50 values."}},
  "data": [
    {"smiles": "O=C(CCCCCCC(=O)Nc1ccccc1)NO", "note": "[SAHA, Vorinostat, reference compound]", "values": [
      {"measurement": "Mean final tumor volume", "setting": "U87-MG cells [1]", "value": 550, "unit": "mm^3"},
      {"measurement": "Time to end-point volume after washout", "setting": "U87-MG cells [2]", "value": 10, "unit": "days"},
      {"measurement": "Mean tumor volume, combined with TMZ", "setting": "U87-MG cells [3]; TMZ 0.5 mg/kg ip 5 days + 100 µM intratumoral", "value": 355, "unit": "mm^3"}
    ]},
    {"smiles": "Cn1nnc2c(C(N)=O)ncn2c1=O", "note": "[TMZ, temozolomide, reference compound]", "values": [
      {"measurement": "Cell viability, single agent", "setting": "U87-MG cells [4]", "value": "reduced cell viability"},
      {"measurement": "Mean tumor volume, TMZ alone", "setting": "U87-MG cells [3]; TMZ 0.5 mg/kg ip 5 days", "value": 400, "unit": "mm^3"}
    ]}
  ]
}
